Assay results as given in publication PMC7126937 (Bioorganic & Medicinal Chemistry, 2014).
Several values for one entry are separate records, joined by “and”; a condition that tells them apart may be missing. Identical values can stand only once.

system: influenza virus A/California/7/09 (H1N1)pdm09; assay type: cell-based, influenza virus A/California/07/09 (H1N1)pdm09

Q: For `CC1(C)[C@@H]2CC[C@@]1(C)/C(=N/c1ccc(Oc3ccc(/N=C4\C[C@H]5CC[C@]4(C)C5(C)C)cc3)cc1)C2` [Compound 2g, (E)-N-((1R,2R,4R)-1,7,7-trimethylbicyclo[2.2.1]heptan-2-ylidene)-4-(4-((E)-((1R,2R,4R)-1,7,7-trimethylbicyclo[2.2.1]heptan-2-ylidene)amino)phenoxy)aniline], which “ED50 (50% effective concentration; the concentration leading to 50% inhibition of virus replication)” value is on record?
A: The value was 373.4 ± 35.1 µM.

Q: How did the “ED50 (50% effective concentration; the concentration leading to 50% inhibition of virus replication)” value turn out when `CC1(C)[C@@H]2CC[C@@]1(C)/C(=N/CCCCCCCC/N=C1\C[C@H]3CC[C@]1(C)C3(C)C)C2` [Compound 2d, N^1E,N^8E-N^1,N^8-bis((1R,2R,4R)-1,7,7-trimethylbicyclo[2.2.1]heptan-2-ylidene)octane-1,8-diamine] was run?
A: Its value is 24.2 ± 2.1 µM.

Q: With `CC1(C)[C@@H]2CC[C@@]1(C)[C@H](Nc1ccc(Oc3ccc(N[C@@H]4C[C@H]5CC[C@]4(C)C5(C)C)cc3)cc1)C2` [Compound 3g, (1R,2R,4R)-1,7,7-trimethyl-N-(4-(4-((1R,2R,4R)-1,7,7-trimethylbicyclo[2.2.1]heptan-2-ylamino)phenoxy)phenyl)bicyclo[2.2.1]heptan-2-amine] as the compound, how does the “ED50 (50% effective concentration; the concentration leading to 50% inhibition of virus replication)” value read?
A: Its value is 207.6 ± 19.5 µM.

Q: Which “ED50 (50% effective concentration; the concentration leading to 50% inhibition of virus replication)” value does the source give for `CC1(C)[C@@H]2CC[C@@]1(C)/C(=N/CCC/N=C1\C[C@H]3CC[C@]1(C)C3(C)C)C2` [Compound 2a, N^1E,N^3E-N^1,N^3-bis((1R,2R,4R)-1,7,7-trimethylbicyclo[2.2.1]heptan-2-ylidene)propane-1,3-diamine] here?
A: Its value is 9.3 ± 0.8 µM.

Q: `CC1(C)[C@@H]2CC[C@@]1(C)[C@H](NCCCCCCCCCCCCN[C@@H]1C[C@H]3CC[C@]1(C)C3(C)C)C2` [Compound 3e, N^1,N^12-bis((1R,2R,4R)-1,7,7-trimethylbicyclo[2.2.1]heptan-2-yl)dodecane-1,12-diamine] was tested. Which “ED50 (50% effective concentration; the concentration leading to 50% inhibition of virus replication)” value did it give?
A: Its value is 4.4 ± 0.3 µM.

Q: How did the “ED50 (50% effective concentration; the concentration leading to 50% inhibition of virus replication)” value turn out when `CC1(C)C2CC[C@@]1(C)C(=O)C2` [Compound 1, (1R)-(+)-camphor, reference compound] was run?
A: The value was 1644.7 ± 144.4 µM.

Q: Which “ED50 (50% effective concentration; the concentration leading to 50% inhibition of virus replication)” value does the source give for `CN(CCCCCCCN(C)[C@@H]1C[C@H]2CC[C@]1(C)C2(C)C)[C@@H]1C[C@H]2CC[C@]1(C)C2(C)C` [Compound 4c, N^1,N^7-dimethyl-N^1,N^7-bis((1R,2R,4R)-1,7,7-trimethylbicyclo[2.2.1]heptan-2-yl)heptane-1,7-diamine] here?
A: The value was 40.4 ± 3.8 µM.

Q: `CC1(C)[C@@H]2CC[C@@]1(C)[C@H](NCCCCCCCN[C@@H]1C[C@H]3CC[C@]1(C)C3(C)C)C2` [Compound 3c, N^1,N^7-bis((1R,2R,4R)-1,7,7-trimethylbicyclo[2.2.1]heptan-2-yl)heptane-1,7-diamine] was tested. Which “ED50 (50% effective concentration; the concentration leading to 50% inhibition of virus replication)” value did it give?
A: Its value is 3.2 µM and 3.2 ± 0.2 µM.

Q: How did the “ED50 (50% effective concentration; the concentration leading to 50% inhibition of virus replication)” value turn out when `CC1(C)[C@@H]2CC[C@@]1(C)/C(=N/c1ccc(Cc3ccc(/N=C4\C[C@H]5CC[C@]4(C)C5(C)C)cc3)cc1)C2` [Compound 2f, (E)-N-((1R,2R,4R)-1,7,7-trimethylbicyclo[2.2.1]heptan-2-ylidene)-4-(4-((E)-((1R,2R,4R)-1,7,7-trimethylbicyclo[2.2.1]heptan-2-ylidene)amino)benzyl)aniline] was run?
A: The value was 351.4 ± 32.3 µM.

Q: How did the “ED50 (50% effective concentration; the concentration leading to 50% inhibition of virus replication)” value turn out when `CC1(C)[C@@H]2CC[C@@]1(C)[C@H](NCCCCCCN[C@@H]1C[C@H]3CC[C@]1(C)C3(C)C)C2` [Compound 3b, N^1,N^6-bis((1R,2R,4R)-1,7,7-trimethylbicyclo[2.2.1]heptan-2-yl)hexane-1,6-diamine] was run?
A: The value was 0.77 µM and 0.77 ± 0.1 µM.

Q: With `CC1(C)[C@@H]2CC[C@@]1(C)/C(=N/CCCCCC/N=C1\C[C@H]3CC[C@]1(C)C3(C)C)C2` [Compound 2b, N^1E,N^6E-N^1,N^6-bis((1R,2R,4R)-1,7,7-trimethylbicyclo[2.2.1]heptan-2-ylidene)hexane-1,6-diamine] as the compound, how does the “ED50 (50% effective concentration; the concentration leading to 50% inhibition of virus replication)” value read?
A: Its value is 15.1 ± 1.1 µM.

Q: `NC12CC3CC(CC(C3)C1)C2` [Amantadine, 1-aminoadamantane, reference compound] was tested. Which “ED50 (50% effective concentration; the concentration leading to 50% inhibition of virus replication)” value did it give?
A: Its value is 64.2 ± 4.7 µM.

Q: `CC1(C)[C@@H]2CC[C@@]1(C)/C(=N/CCCCCCCCCCCC/N=C1\C[C@H]3CC[C@]1(C)C3(C)C)C2` [Compound 2e, N^1E,N^12E-N^1,N^12-bis((1R,2R,4R)-1,7,7-trimethylbicyclo[2.2.1]heptan-2-ylidene)dodecane-1,12-diamine] was tested. Which “ED50 (50% effective concentration; the concentration leading to 50% inhibition of virus replication)” value did it give?
A: Its value is 45.0 ± 3.9 µM.

Q: Which “ED50 (50% effective concentration; the concentration leading to 50% inhibition of virus replication)” value does the source give for `CC1(C)[C@@H]2CC[C@@]1(C)/C(=N/c1ccc(Oc3ccc(N)cc3)cc1)C2` [Compound 5g, (E)-4-(4-aminophenoxy)-N-((1R,2R,4R)-1,7,7-trimethylbicyclo[2.2.1]heptan-2-ylidene)aniline] here?
A: The value was 4.2 ± 0.0 µM.

Q: `CC1(C)[C@@H]2CC[C@@]1(C)[C@H](Nc1ccc(Cc3ccc(N[C@@H]4C[C@H]5CC[C@]4(C)C5(C)C)cc3)cc1)C2` [Compound 3f, (1R,2R,4R)-1,7,7-trimethyl-N-(4-(4-((1R,2R,4R)-1,7,7-trimethylbicyclo[2.2.1]heptan-2-ylamino)benzyl)phenyl)bicyclo[2.2.1]heptan-2-amine] was tested. Which “ED50 (50% effective concentration; the concentration leading to 50% inhibition of virus replication)” value did it give?
A: The value was 153.2 ± 11.9 µM.

Q: With `CC(N)C12CC3CC(CC(C3)C1)C2.Cl` (stereo not drawn) [Rimantadine, α-methyl-1-adamantylamine hydrochloride, reference compound] as the compound, how does the “ED50 (50% effective concentration; the concentration leading to 50% inhibition of virus replication)” value read?
A: The value was 67.0 ± 4.9 µM.

Q: How did the “ED50 (50% effective concentration; the concentration leading to 50% inhibition of virus replication)” value turn out when `CN(CCCCCCN(C)[C@@H]1C[C@H]2CC[C@]1(C)C2(C)C)[C@@H]1C[C@H]2CC[C@]1(C)C2(C)C` [Compound 4b, N^1,N^6-dimethyl-N^1,N^6-bis((1R,2R,4R)-1,7,7-trimethylbicyclo[2.2.1]heptan-2-yl) hexane-1,6-diamine] was run?
A: The value was 110.1 ± 10.4 µM.

Q: How did the “ED50 (50% effective concentration; the concentration leading to 50% inhibition of virus replication)” value turn out when `CC1(C)[C@@H]2CC[C@@]1(C)/C(=N/c1ccc(Cc3ccc(N)cc3)cc1)C2` [Compound 5f, (E)-4-(4-aminobenzyl)-N-((1R,2R,4R)-1,7,7-trimethylbicyclo[2.2.1]heptan-2-ylidene)aniline] was run?
A: The value was 15.0 ± 1.2 µM.

Q: `CC1(C)[C@@H]2CC[C@@]1(C)/C(=N/CCCCCCC/N=C1\C[C@H]3CC[C@]1(C)C3(C)C)C2` [Compound 2c, N^1E,N^7E-N^1,N^7-bis((1R,2R,4R)-1,7,7-trimethylbicyclo[2.2.1]heptan-2-ylidene)heptane-1,7-diamine] was tested. Which “ED50 (50% effective concentration; the concentration leading to 50% inhibition of virus replication)” value did it give?
A: The value was 22.8 ± 2.3 µM.
